Consider 6 compounds from patent publication US11098040B2, “Compounds and methods of use” (Ferro Therapeutics, Inc., priority 2018, dated 2021).

The IC50 is the point on the concentration scale where inhibition reaches its midpoint.

The subject of the first data set is KP4. The data set can be described thus: Cell viability assay (CellTiter Glo), pancreatic ductal adenocarcinoma KP4. It is filed as cell-based, human. To be noted: Homo sapiens, KP-4, 96 h, pancreatic cancer cell line KP4, 96 hours, CellTiter Glo; read-out: IC50 μM KP4. In outline: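 Luminescent ATP readout (CellTiter Glo) after 96 h compound exposure, normalized to DMSO-treated cells as maximum. Compounds ran in duplicate, nine 3-fold steps from 30 μM down to 4.6 nM, final DMSO ≤0.25%; KP4 plated overnight at 1,000–10,000 cells/well. Outputs: IC50, relative IC50 or % top inhibition.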
On to `CN(C)C(=O)[C@H]1Cc2c([nH]c3ccc(Br)cc23)[C@H](c2ccc(C(=O)OC(C)(C)C)cc2)N1C(=O)CCl` [Compound 61], for which the IC50 was below 0.01 µM.

In the case of `COC(=O)[C@H]1Cc2c([nH]c3ccccc23)[C@H](C23CC(C(=O)OC)(C2)C3)N1C(=O)CCl` [Compound 62], the IC50 lay within 0.01 to 0.1 µM.

Turning to `COC[C@H]1Cc2c([nH]c3ccccc23)[C@H](c2ccc(C(=O)OC(C)(C)C)cc2)N1C(=O)CCl` [Compound 63], the IC50 is 0.01 to 0.1 µM.

Take `COC[C@H]1Cc2c([nH]c3ccccc23)[C@@H](c2ccc(C(=O)OC(C)(C)C)cc2)N1C(=O)CCl` [Compound 64]: the IC50 fell in the range of 0.1 to 0.5 µM.

Take `CN(C)C(=O)[C@H]1Cc2c([nH]c3ccccc23)[C@H](c2ccc(C(=O)NC[Si](C)(C)C)cc2)N1C(=O)CCl` [Compound 66]: the IC50 lay in the range of 0.01 to 0.1 µM.

As for `CN(C)C(=O)[C@H]1Cc2c([nH]c3ccccc23)[C@H](c2ccc([Si](C)(C)C)cc2)N1C(=O)CCl` [Compound 67], the IC50 lay within 0.01 to 0.1 µM.

Test system in a further data set: not listed separately
Nature of the data set: Whole blood stability, mouse. It is filed as in vitro ADME. The note with it: 0 min. From the text: (§1) The results of the assay on stability in blood and IC50 values for pancreatic cancer cell line KP4 are given below in Table 24.
Consider `CN(C)C(=O)[C@H]1Cc2c([nH]c3ccc(Br)cc23)[C@H](c2ccc(C(=O)OC(C)(C)C)cc2)N1C(=O)CCl` [Compound 61], for which the “Whole Blood Stability % Remaining at 37° C. Mouse” value turned out to be 100.0%.

Take `COC(=O)[C@H]1Cc2c([nH]c3ccccc23)[C@H](C23CC(C(=O)OC)(C2)C3)N1C(=O)CCl` [Compound 62]: the “Whole Blood Stability % Remaining at 37° C. Mouse” value amounted to 100.0%.

`COC[C@H]1Cc2c([nH]c3ccccc23)[C@H](c2ccc(C(=O)OC(C)(C)C)cc2)N1C(=O)CCl` [Compound 63]: the “Whole Blood Stability % Remaining at 37° C. Mouse” value was found to be 100.0%.

`COC[C@H]1Cc2c([nH]c3ccccc23)[C@@H](c2ccc(C(=O)OC(C)(C)C)cc2)N1C(=O)CCl` [Compound 64]: the “Whole Blood Stability % Remaining at 37° C. Mouse” value is listed as 100.0%.

In the case of `CN(C)C(=O)[C@H]1Cc2c([nH]c3ccccc23)[C@H](c2ccc(C(=O)NC[Si](C)(C)C)cc2)N1C(=O)CCl` [Compound 66], the “Whole Blood Stability % Remaining at 37° C. Mouse” value is 100.0%.

Regarding `CN(C)C(=O)[C@H]1Cc2c([nH]c3ccccc23)[C@H](c2ccc([Si](C)(C)C)cc2)N1C(=O)CCl` [Compound 67], the “Whole Blood Stability % Remaining at 37° C. Mouse” value stood at 100.0%.

Still in this data set, the particulars now being: 30 min.
Turning to `CN(C)C(=O)[C@H]1Cc2c([nH]c3ccc(Br)cc23)[C@H](c2ccc(C(=O)OC(C)(C)C)cc2)N1C(=O)CCl` [Compound 61], the “Whole Blood Stability % Remaining at 37° C. Mouse” value was determined as 20.5%.

On to `COC(=O)[C@H]1Cc2c([nH]c3ccccc23)[C@H](C23CC(C(=O)OC)(C2)C3)N1C(=O)CCl` [Compound 62], for which the “Whole Blood Stability % Remaining at 37° C. Mouse” value turned out to be 0.0%.

For `COC[C@H]1Cc2c([nH]c3ccccc23)[C@H](c2ccc(C(=O)OC(C)(C)C)cc2)N1C(=O)CCl` [Compound 63], the “Whole Blood Stability % Remaining at 37° C. Mouse” value was 97.0%.

For the compound `COC[C@H]1Cc2c([nH]c3ccccc23)[C@@H](c2ccc(C(=O)OC(C)(C)C)cc2)N1C(=O)CCl` [Compound 64], the “Whole Blood Stability % Remaining at 37° C. Mouse” value came out at 0.0%.

Take `CN(C)C(=O)[C@H]1Cc2c([nH]c3ccccc23)[C@H](c2ccc(C(=O)NC[Si](C)(C)C)cc2)N1C(=O)CCl` [Compound 66]: the “Whole Blood Stability % Remaining at 37° C. Mouse” value came out at 69.8%.

Take `CN(C)C(=O)[C@H]1Cc2c([nH]c3ccccc23)[C@H](c2ccc([Si](C)(C)C)cc2)N1C(=O)CCl` [Compound 67]: the “Whole Blood Stability % Remaining at 37° C. Mouse” value stood at 38.7%.

Staying with this data set, now noted: 60 min.
Turning to `CN(C)C(=O)[C@H]1Cc2c([nH]c3ccc(Br)cc23)[C@H](c2ccc(C(=O)OC(C)(C)C)cc2)N1C(=O)CCl` [Compound 61], the “Whole Blood Stability % Remaining at 37° C. Mouse” value is 6.8%.

Regarding `COC(=O)[C@H]1Cc2c([nH]c3ccccc23)[C@H](C23CC(C(=O)OC)(C2)C3)N1C(=O)CCl` [Compound 62], the “Whole Blood Stability % Remaining at 37° C. Mouse” value is listed as 0.0%.

Take `COC[C@H]1Cc2c([nH]c3ccccc23)[C@H](c2ccc(C(=O)OC(C)(C)C)cc2)N1C(=O)CCl` [Compound 63]: the “Whole Blood Stability % Remaining at 37° C. Mouse” value is 108.4%.

On to `COC[C@H]1Cc2c([nH]c3ccccc23)[C@@H](c2ccc(C(=O)OC(C)(C)C)cc2)N1C(=O)CCl` [Compound 64], for which the “Whole Blood Stability % Remaining at 37° C. Mouse” value worked out at 0.0%.

In the case of `CN(C)C(=O)[C@H]1Cc2c([nH]c3ccccc23)[C@H](c2ccc(C(=O)NC[Si](C)(C)C)cc2)N1C(=O)CCl` [Compound 66], the “Whole Blood Stability % Remaining at 37° C. Mouse” value is recorded as 26.8%.

In the case of `CN(C)C(=O)[C@H]1Cc2c([nH]c3ccccc23)[C@H](c2ccc([Si](C)(C)C)cc2)N1C(=O)CCl` [Compound 67], the “Whole Blood Stability % Remaining at 37° C. Mouse” value was 13.3%.

Test system in a further data set: not listed separately
The data set can be described thus: Whole blood stability, human. It is filed as in vitro ADME. The note with it: 0 min.
Description: as §1
As for `CN(C)C(=O)[C@H]1Cc2c([nH]c3ccc(Br)cc23)[C@H](c2ccc(C(=O)OC(C)(C)C)cc2)N1C(=O)CCl` [Compound 61], the “Whole Blood Stability % Remaining at 37° C. Human” value is recorded as 100.0%.

On to `COC(=O)[C@H]1Cc2c([nH]c3ccccc23)[C@H](C23CC(C(=O)OC)(C2)C3)N1C(=O)CCl` [Compound 62], for which the “Whole Blood Stability % Remaining at 37° C. Human” value is 100.0%.

As for `COC[C@H]1Cc2c([nH]c3ccccc23)[C@H](c2ccc(C(=O)OC(C)(C)C)cc2)N1C(=O)CCl` [Compound 63], the “Whole Blood Stability % Remaining at 37° C. Human” value came to 100.0%.

On to `COC[C@H]1Cc2c([nH]c3ccccc23)[C@@H](c2ccc(C(=O)OC(C)(C)C)cc2)N1C(=O)CCl` [Compound 64], for which the “Whole Blood Stability % Remaining at 37° C. Human” value is 100.0%.

For the compound `CN(C)C(=O)[C@H]1Cc2c([nH]c3ccccc23)[C@H](c2ccc(C(=O)NC[Si](C)(C)C)cc2)N1C(=O)CCl` [Compound 66], the “Whole Blood Stability % Remaining at 37° C. Human” value stood at 100.0%.

Take `CN(C)C(=O)[C@H]1Cc2c([nH]c3ccccc23)[C@H](c2ccc([Si](C)(C)C)cc2)N1C(=O)CCl` [Compound 67]: the “Whole Blood Stability % Remaining at 37° C. Human” value is reported as 100.0%.

The data set is the same for the next values; noted with them: 30 min.
As for `CN(C)C(=O)[C@H]1Cc2c([nH]c3ccc(Br)cc23)[C@H](c2ccc(C(=O)OC(C)(C)C)cc2)N1C(=O)CCl` [Compound 61], the “Whole Blood Stability % Remaining at 37° C. Human” value came to 49.2%.

Take `COC(=O)[C@H]1Cc2c([nH]c3ccccc23)[C@H](C23CC(C(=O)OC)(C2)C3)N1C(=O)CCl` [Compound 62]: the “Whole Blood Stability % Remaining at 37° C. Human” value came to 82.4%.

As for `COC[C@H]1Cc2c([nH]c3ccccc23)[C@H](c2ccc(C(=O)OC(C)(C)C)cc2)N1C(=O)CCl` [Compound 63], the “Whole Blood Stability % Remaining at 37° C. Human” value is given as 113.1%.

Take `COC[C@H]1Cc2c([nH]c3ccccc23)[C@@H](c2ccc(C(=O)OC(C)(C)C)cc2)N1C(=O)CCl` [Compound 64]: the “Whole Blood Stability % Remaining at 37° C. Human” value was 44.3%.

Turning to `CN(C)C(=O)[C@H]1Cc2c([nH]c3ccccc23)[C@H](c2ccc(C(=O)NC[Si](C)(C)C)cc2)N1C(=O)CCl` [Compound 66], the “Whole Blood Stability % Remaining at 37° C. Human” value stood at 79.1%.

`CN(C)C(=O)[C@H]1Cc2c([nH]c3ccccc23)[C@H](c2ccc([Si](C)(C)C)cc2)N1C(=O)CCl` [Compound 67]: the “Whole Blood Stability % Remaining at 37° C. Human” value was 56.8%.

Still in this data set, the particulars now being: 60 min.
With `CN(C)C(=O)[C@H]1Cc2c([nH]c3ccc(Br)cc23)[C@H](c2ccc(C(=O)OC(C)(C)C)cc2)N1C(=O)CCl` [Compound 61], the “Whole Blood Stability % Remaining at 37° C. Human” value is recorded as 34.0%.

In the case of `COC(=O)[C@H]1Cc2c([nH]c3ccccc23)[C@H](C23CC(C(=O)OC)(C2)C3)N1C(=O)CCl` [Compound 62], the “Whole Blood Stability % Remaining at 37° C. Human” value is 43.5%.

On to `COC[C@H]1Cc2c([nH]c3ccccc23)[C@H](c2ccc(C(=O)OC(C)(C)C)cc2)N1C(=O)CCl` [Compound 63], for which the “Whole Blood Stability % Remaining at 37° C. Human” value came to 70.7%.

Consider `COC[C@H]1Cc2c([nH]c3ccccc23)[C@@H](c2ccc(C(=O)OC(C)(C)C)cc2)N1C(=O)CCl` [Compound 64], for which the “Whole Blood Stability % Remaining at 37° C. Human” value was 14.7%.

Regarding `CN(C)C(=O)[C@H]1Cc2c([nH]c3ccccc23)[C@H](c2ccc(C(=O)NC[Si](C)(C)C)cc2)N1C(=O)CCl` [Compound 66], the “Whole Blood Stability % Remaining at 37° C. Human” value was 45.8%.

For `CN(C)C(=O)[C@H]1Cc2c([nH]c3ccccc23)[C@H](c2ccc([Si](C)(C)C)cc2)N1C(=O)CCl` [Compound 67], the “Whole Blood Stability % Remaining at 37° C. Human” value was 37.3%.
